In publication PMC4140764 (PLoS Neglected Tropical Diseases, 2014):
Read-outs that look alike come from different tables or passages of the source.

Key:
RVFV strain MP12 [1] = assay: microbe, parasite or virus in culture; format: cell-based, Rift Valley fever virus; conditions: for EC50: Rift Valley fever virus, HeLa, 24 h
RVFV = assay: microbe, parasite or virus in culture; format: cell-based; conditions: Rift Valley fever virus, SAEC, 24 h
VEEV (1CSH3) = assay: microbe, parasite or virus in culture; format: cell-based, Venezuelan equine encephalomyelitis virus; conditions: for EC50: Venezuelan equine encephalitis virus, HeLa, 20 h
EBOV (Zaire) = assay: microbe, parasite or virus in culture; format: cell-based, Zaire ebolavirus
MARV (Ci67) = assay: microbe, parasite or virus in culture; format: cell-based, Lake Victoria marburgvirus
LASV (Josiah) = assay: microbe, parasite or virus in culture; format: cell-based, Lassa virus; conditions: for EC50: Mammarenavirus lassaense, HeLa, 24 h
[2] = system: Golgi complex in HeLa-G cells; assay: cells; format: cell-based, human; conditions: for EC50: Homo sapiens, 12 h, read-out: GC50 (effective concentration of compound that disrupts 50% of the Golgi complexes)
RVFV strain MP12 [3] = format: cell-based, Rift Valley fever virus
in vitro [4] = conditions: human
in vitro [5] = conditions: human; remark: listed apart in the source
RVFV RNA = format: cell-based, Rift Valley fever virus
[6] = system: tubulin / microtubule organization in HeLa cells; format: cell-based, human
[7] = system: HeLa cells expressing H3-pS10
[8] = Orthomarburgvirus marburgense, HeLa, 48 h

Structure (SMILES) | EC50 (RVFV strain MP12 [1]) [µM] | EC50 (RVFV) [µM] | EC50 (VEEV (1CSH3)) [µM] | EC50 (EBOV (Zaire); Zaire ebolavirus, HeLa, 48 h) [µM] | EC50 (MARV (Ci67); [8]) [µM] | EC50 (LASV (Josiah)) [µM] | %GNL (lowest % of Golgi number achievable at the compound's highest concentration) [2] [%] | EC50 [2] [µM] | reduction of N and Gn expression (RVFV strain MP12 [3]) | time of compound addition PI at which 50% of infection is rescued/recovered (RVFV strain MP12 [3]) [h] | CC50 (in vitro [5]) [µM] | other results
CC1(C(=O)NCc2ccccc2)Cn2c(cc3occc32)C(=O)N1Cc1ccc(Cl)cc1 (centres unmarked) [C795-0925] | 14.4 | 12.3 | 10.2 | 46.6 | 57.4 | 81.4 | 63.4 | 36.9 | significantly reduced | 9 | 111 | antiviral activity against RVFV in secondary screening (heat map) (RVFV strain MP12 [1]): highest activity; antiviral activity against VEEV in secondary screening (heat map) (VEEV (1CSH3)): highest activity; antiviral activity against EBOV in secondary screening (heat map) (EBOV (Zaire)): moderate antiviral activity; antiviral activity against MARV in secondary screening (heat map) (MARV (Ci67)): moderate antiviral activity; antiviral activity against LASV in secondary screening (heat map) (LASV (Josiah)): moderate antiviral activity; CC50 (in vitro [4]): 56.7 µM
COc1ccc(CN2C(=O)C(=O)c3cc(C)ccc32)cc1 [D011-2120] | 61.5 | 62.4 | 41.6 | 54.1 | 87.1 | 46.8 | 16.4 | 38.2 | ~10% | > 10 | 98 | antiviral activity against RVFV in secondary screening (heat map) (RVFV strain MP12 [1]): moderate activity; antiviral activity against VEEV in secondary screening (heat map) (VEEV (1CSH3)): high activity; antiviral activity against EBOV in secondary screening (heat map) (EBOV (Zaire)): high activity; antiviral activity against MARV in secondary screening (heat map) (MARV (Ci67)): high activity; antiviral activity against LASV in secondary screening (heat map) (LASV (Josiah)): moderate activity; reduction of S-Gn (cell surface exposed Gn) expression (RVFV strain MP12 [3]): approximately 90%; viral RNA accumulation in the supernatants (RVFV RNA): 9%; viral RNA accumulation inside the cells (RVFV RNA): 75%; tubulin ridge value relative to BFA- or mock-treated cells [6]: approximately half; number of cells expressing H3-pS10 (mitotic cells) vs mock-treated [7]: significant increase; concentration above which compound was toxic to the cells ([7]; human): > 25 µM
Cc1ccc(NC(=O)Nc2cc(NC(=O)c3ccc(F)cc3)ccc2N2CCCC2)c(Cl)c1 [F694-1532] | 20 | 23.5 | 15.2 | 118 | 143 | 80.4 | 19.5 | 35.3 | significantly reduced | 8 | 51.3 | 
COc1ccccc1CNC(=O)C1c2c(n(C)c3ccccc23)SCC(=O)N1c1ccc(OC)c(OC)c1 (centres unmarked) [G202-0362] | 13.6 | 11.9 | 48.9 | 16 | 34 |  | 61.2 | 23.7 | ~10% | > 10 |  | EC50 (EBOV (Zaire)): 16.1 µM; EC50 (MARV (Ci67)): 34.1 µM; reduction of S-Gn (cell surface exposed Gn) expression (RVFV strain MP12 [3]): approximately 90%; viral RNA accumulation in the supernatants (RVFV RNA): 28%; viral RNA accumulation inside the cells (RVFV RNA): 95%; toxic effects on the HeLa cells (HeLa cells): no toxic effects; effects on cell division in uninfected cells [7]: no observable effects
Cl.N [NH4Cl, reference compound] |  |  |  |  |  |  |  |  |  |  |  | RVFV infection inhibition when added 2 h PI (RVFV strain MP12 [3]): not at the later time point; RVFV infection inhibition when added at early time points (−2 h or 0 h) (RVFV strain MP12 [3]): inhibited RVFV infection
NC(=O)c1ncn([C@@H]2O[C@H](CO)[C@@H](O)[C@H]2O)n1 [Ribavirin, ribavirin, reference compound] | 27.2 | 29.5 | 75 | 60.1 | 82.2 | 6.8 | 87.2 |  |  |  |  | 
COC(=O)Nc1nc2ccc(C(=O)c3cccs3)cc2[nH]1 [nocodazole, reference compound] |  |  |  |  |  |  |  |  |  |  |  | tubulin ridge value relative to BFA- or mock-treated cells [6]: approximately half; number of cells expressing H3-pS10 (mitotic cells) vs mock-treated [7]: significant increase
